One may read the ED50 as the dose at which the effect has come halfway, by size or by number of responders. A higher ED50 goes with a need for a large dose.

The values below come from US5245051A, “Antipsychotic chroman derivatives of benzodioxanmethylamine” (American Home Products Corporation, priority 1992, dated 1993).

One assay concerns the target T1, dopamine D2 receptor (Rattus norvegicus, UniProt P61169).
T1 construct: homogenized rat striatal brain tissue; from tissue; host or cells: rat striatal brain tissue homogenate
As to the kind of experiment: Affinity for dopamine D2 receptor (3H-quinpirole, homogenized rat striatal brain tissue). Type of assay: binding. The method, then:
Affinity for the dopamine D2 receptor was established by a modification of the standard experimental test procedure of Seemen and Schaus, European Journal of Pharmacology 203: 105-109, 1991, wherein homogenized rat striatal brain tissue is incubated with ^3 H-quinpirole and various concentrations of test compound, filtered and washed and counted in a Betaplate scintillation counter.

The test system of another assay is mouse locomotor activity. In words: Reduction of mouse locomotor activity (hypolocomotion). As to conditions: 20 min, ip, horizontal activity counts 10 to 20 minutes after dosing. It is filed as in vivo, mouse (male, CF-1). As for the experimental part:
The antipsychotic activity of the compounds of the invention was further established by a determination of the compounds' ability to reduce mouse locomotor activity according to the method of Martin and Bendensky, J. Pharmacol. Exp. Therap. 229: 706-711, 1984, in which mice (male, CF-1, Charles River, 20-30 g) were injected with vehicle or various doses of each drug and locomotor activity was measured for 30 minutes using automated infrared activity monitors (Omnitech-8×8 inch open field) located in a darkened room. ED50 's were calculated from the horizontal activity counts collected from 10 to 20 minutes after dosing using a nonlinear regression analysis with inverse prediction.

The next assay relates to dopa accumulation. In words: Inhibition of dopa accumulation in GBL-treated rats (effect on dopamine synthesis, Walters and Roth). Type of assay: in vivo, rat (male, Sprague-Dawley). Conditions: sc, limbic (L) brain tissue, rat, read-out: Dopa Accumulation (% inhib. @ 10 mg/kg, sc). As for the experimental part:
The effect of the compounds of the invention on the synthesis of dopamine was established by the method of Walters and Roth, Naunyn-Schmiedeberg's Arch. Pharmacol. 296:5-14, 1976, in which rats (male, Sprague-Dawley, Charles River, 200-350 g) were administered vehicle or test drug ten minutes prior to the administration of gamma butyrolactone (GBL; 750 mg/kg, ip to inhibit dopaminergic impulse flow) and 20 minutes prior to NSD-1015 (100 mg/kg, ip to prevent the conversion of dopa to dopamine). Thirty minutes after NSD-1015 all rats were decapitated and the nucleus accumbens and the striatum were removed for analysis. Following perchloric acid extraction of the tissue, the extracts were placed over alumina columns to collect and concentrate dopa and other catechols. This eluate was then subjected to HPLC analysis using electrochemical detection to quantify the levels of dopa present. Dopamine autoreceptor agonists, under the conditions used above, inhibit dopa accumulation.

The subject of the next assay is 5-HT1A receptor. Conditions: (-)-isomer versus dextrorotary isomer; cited from earlier work.

T1 sequence (P61169 whole entry): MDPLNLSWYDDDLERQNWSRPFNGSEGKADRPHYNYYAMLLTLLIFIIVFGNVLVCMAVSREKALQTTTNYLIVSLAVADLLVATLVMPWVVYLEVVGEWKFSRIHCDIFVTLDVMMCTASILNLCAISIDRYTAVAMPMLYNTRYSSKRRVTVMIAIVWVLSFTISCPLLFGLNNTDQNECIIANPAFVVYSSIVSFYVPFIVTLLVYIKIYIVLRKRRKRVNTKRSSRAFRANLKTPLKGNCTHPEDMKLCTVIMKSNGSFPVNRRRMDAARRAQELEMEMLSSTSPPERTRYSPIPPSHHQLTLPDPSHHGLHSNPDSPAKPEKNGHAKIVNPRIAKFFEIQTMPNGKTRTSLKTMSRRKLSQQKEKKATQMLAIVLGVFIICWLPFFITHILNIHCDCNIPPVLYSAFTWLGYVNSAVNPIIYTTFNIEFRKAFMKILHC

For the compound `c1cc2c(cc1OCCCNCC1COc3cc4c(cc3O1)OCO4)OCCC2` (stereo not drawn) [Example 7, N-[3-(Chroman-7-yloxy)-propyl]-6,7-dihydro-1,3-dioxolo[4,5-g][1,4]benzodioxin-6-methanamine], the inhibition at 0.1 µM on dopamine D2 receptor was 24%.
At dopamine D2 receptor, `COc1ccc2c(c1)OC(CNCCCOc1ccc3c(=O)ccoc3c1)CO2` (stereo not drawn) [Example 8, 7-[3-[(7-Methoxy-2,3-dihydro-benzo[1,4]dioxin-2-ylmethyl)amino]propoxy]chromen-4-one] registered an inhibition at 0.1 µM of 49%.
Same read-out and setting: under `O=C1CCOc2cc(OCCCNCC3COc4cc5c(cc4O3)OCO5)ccc21` (stereo not drawn) [Example 4, 7-[3-[[(6,7-Dihydro-1,3-dioxolo[4,5-g][1,4]benzodioxin-6-yl)methyl]amino]propoxy]-chroman-4-one] stands 24%; under `O=c1ccoc2cc(OCCCNCC3COc4cc5c(cc4O3)OCO5)ccc12` (stereo not drawn) [Example 1, 7-[3-[[(6,7-Dihydro-1,3-dioxolo[4,5-g][1,4]benzodioxin-6-yl)methyl]amino]propoxy]chromen-4-one], 65%.
Compound `O=c1ccoc2cc(OCCCNC[C@H]3COc4cc5c(cc4O3)OCO5)ccc12` [Example 2, (S)-7-[3-[[(6,7-Dihydro-1,3-dioxolo[4,5-g][1,4]benzodioxin-6-yl)methyl]amino]propoxy]chromen-4-one] displayed an ED50 in the assay on mouse locomotor activity of 2.74 mg/kg. Also, the inhibition at 10 mg/kg in the assay with dopa accumulation turned out to be 60.3%. At dopamine D2 receptor, this compound registered an inhibition at 0.1 µM of 73%.
`O=c1ccoc2cc(OCCCNCC3COc4ccc(O)cc4O3)ccc12` (stereo not drawn) [Example 9, 7-[3-[(7-Hydroxy-2,3-dihydro-benzo[1,4]dioxin-2-ylmethyl)amino]propoxy]chromen-4-one]: the inhibition at 0.1 µM against dopamine D2 receptor is 100%.
In the case of `O=C1COc2cc(OCCCNCC3COc4cc5c(cc4O3)OCO5)ccc21` (stereo not drawn) [Example 10, 6-[3-[(6,7-Dihydro-1,3-dioxolo[4,5-g][1,4]benzodioxin-6-ylmethyl)amino]propoxy)-benzofuran-3-one], at dopamine D2 receptor, the inhibition at 0.1 µM came to 43%.
`c1cc2c(cc1OCCCNCC1COc3cc4c(cc3O1)OCO4)CCCO2` (stereo not drawn) [Example 6, N-[3-(Chroman-6-yloxy)-propyl]-6,7-dihydro-1,3-dioxolo[4,5-g][1,4]benzodioxin-6-methanamine] yielded an inhibition at 0.1 µM at dopamine D2 receptor of 23%.
In turn, `O=c1ccoc2ccc(OCCCNCC3COc4cc5c(cc4O3)OCO5)cc12` (stereo not drawn) [Example 5, 6-[3-[[(6,7-Dihydro-1,3-dioxolo[4,5-g][1,4]benzodioxin-6-yl)methyl]amino]propoxy]-chromen-4-one] showed an inhibition at 0.1 µM against dopamine D2 receptor of 39%.
For `O=C1CC2(CCCC2)CC(=O)N1CCCCNCC1COc2ccccc2O1` (single isomer, unassigned; (-)) [(-)-MDL 72832, 8-[4-(1,4-benzodioxan-2-ylmethylamino)butyl]-8-azaspiro[4.5]decane-7,9-dione], in the assay with 5-HT1A receptor, the “binds times as much as the dextrorotary isomer at the 5-HT1A receptor site” value is on record as 32 times.
